Data from ChEMBL document CHEMBL1268834, “Expansion of SAR studies on triaryl bis sulfone cannabinoid CB2 receptor ligands” (Bioorg Med Chem Lett, 2010).

system: not listed separately; assay: AUC in rat at 10 mg/kg; assay type: ADME, organism-based; parameters: dose 10 mg/kg; conditions: plasma

Row | SMILES | AUC
1 | O=S(=O)(c1cc2ccccc2n1S(=O)(=O)c1ccccn1)N1CCC2(CC1)C[C@@H]2NS(=O)(=O)C(F)(F)F | 4.56 µM·h
2 | COC1(CNS(=O)(=O)C(F)(F)F)CCN(S(=O)(=O)c2cc3cccnc3n2S(=O)(=O)c2ccccc2F)CC1 | 3.19 µM·h
3 | CCC1(CNS(=O)(=O)C(F)(F)F)CCN(S(=O)(=O)c2cc3cc(F)ccc3n2S(=O)(=O)c2ccccc2F)CC1 | 3.77 µM·h
4 | CCCC1(CNS(=O)(=O)C(F)(F)F)CCN(S(=O)(=O)c2cc3ccccc3n2S(=O)(=O)c2ccccn2)CC1 | 17.6 µM·h

biological target: Cannabinoid receptor 2 (Homo sapiens, UniProt P34972); assay: Inhibition of beta-arrestin binding to recombinant cannabinoid CB2 receptor; conditions: not given
Sequence (P34972 whole entry): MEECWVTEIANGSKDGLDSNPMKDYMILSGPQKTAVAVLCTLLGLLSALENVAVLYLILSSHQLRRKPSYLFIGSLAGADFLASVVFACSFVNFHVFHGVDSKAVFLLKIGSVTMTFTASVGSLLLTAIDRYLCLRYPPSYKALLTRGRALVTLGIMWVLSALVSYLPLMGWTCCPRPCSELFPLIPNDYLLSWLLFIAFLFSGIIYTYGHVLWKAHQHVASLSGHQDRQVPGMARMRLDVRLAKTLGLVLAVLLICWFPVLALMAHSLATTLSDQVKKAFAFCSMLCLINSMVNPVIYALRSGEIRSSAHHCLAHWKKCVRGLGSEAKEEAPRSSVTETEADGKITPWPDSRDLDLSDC

Row | SMILES | Ki
5 | C[C@@H](NS(=O)(=O)C(F)(F)F)c1ccc(S(=O)(=O)c2cc3ccccc3n2S(=O)(=O)c2ccccc2F)cc1 | 7.5 nM
6 | COc1ccc2c(c1)cc(S(=O)(=O)N1CCC(CNS(=O)(=O)C(F)(F)F)CC1)n2S(=O)(=O)c1ccccc1F | 0.8 nM
7 | C[C@@H]1CN(S(=O)(=O)c2cc3ccccc3n2S(=O)(=O)c2ccccc2F)CC[C@@H]1CNS(=O)(=O)C(F)(F)F | 1.5 nM
8 | O=S(=O)(c1cc2ccccc2n1S(=O)(=O)c1ccccc1F)N1C[C@@H]2[C@@H](CNS(=O)(=O)C(F)(F)F)[C@@H]2C1 | 9 nM
9 | CC(C)C1(CNS(=O)(=O)C(F)(F)F)CCCN(S(=O)(=O)c2cc3ccccc3n2S(=O)(=O)c2ccccc2F)C1 (configuration not stated) | 78 nM
10 | C[C@@H]1CN(S(=O)(=O)c2cc3ccccc3n2S(=O)(=O)c2ccccc2F)CC[C@H]1CNS(=O)(=O)C(F)(F)F | 0.5 nM
11 | O=S(=O)(c1cc2ccccc2n1S(=O)(=O)c1cccnc1)N1CCC(CNS(=O)(=O)C(F)(F)F)CC1 | 41 nM
12 | O=S(=O)(c1cc2ccccc2n1S(=O)(=O)c1ccccn1)N1CCC(CNS(=O)(=O)C(F)(F)F)CC1 | 0.9 nM
13 | O=S(=O)(c1cc2ccccc2n1S(=O)(=O)c1ccccc1F)N1CC(CCNS(=O)(=O)C(F)(F)F)C1 | 249 nM
14 | C[C@@H](NS(=O)(=O)C(F)(F)F)c1ccc(S(=O)(=O)n2cccc2S(=O)(=O)c2ccccc2F)cc1 | 8.4 nM
15 | Cn1c(S(=O)(=O)c2ccccc2F)c(S(=O)(=O)N2CCC(CNS(=O)(=O)C(F)(F)F)CC2)c2ccccc21 | 70 nM
16 | O=S(=O)(c1cc2ccccc2n1S(=O)(=O)c1ccccc1F)N1CCC2(CC1)CN(S(=O)(=O)C(F)(F)F)C2 | 8430 nM
17 | CCCC1(CNS(=O)(=O)C(F)(F)F)CCN(S(=O)(=O)c2cc3ccccc3n2S(=O)(=O)c2ccccc2F)CC1 | 1.8 nM
18 | CN(C)c1ncccc1S(=O)(=O)n1c(S(=O)(=O)N2CCC(CNS(=O)(=O)C(F)(F)F)CC2)cc2ccccc21 | 23 nM
19 | C[C@@H](NS(=O)(=O)C(F)(F)F)c1ccc(S(=O)(=O)c2ccoc2S(=O)(=O)c2ccccc2F)cc1 | 4.4 nM
20 | CC1(CNS(=O)(=O)C(F)(F)F)CCN(S(=O)(=O)c2cc3ccccc3n2S(=O)(=O)c2ccccc2F)CC1 | 0.35 nM

Row | SMILES | Ki
21 | CC(NS(=O)(=O)C(F)(F)F)C1CCN(S(=O)(=O)c2cc3ccccc3n2S(=O)(=O)c2ccccc2F)CC1 (configuration not stated) | 0.4 nM
22 | O=S(=O)(c1cc2ccccc2n1S(=O)(=O)c1ccccc1F)N1CCCC(CCNS(=O)(=O)C(F)(F)F)C1 (configuration not stated) | 258 nM
23 | O=S(=O)(c1cc2ccccc2n1S(=O)(=O)c1ccccn1)N1CCC2(CC1)C[C@@H]2NS(=O)(=O)C(F)(F)F | 0.4 nM
24 | O=S(=O)(c1cc2ccccc2n1S(=O)(=O)c1ccccc1F)N1CCC(CNS(=O)(=O)C(F)(F)F)CC1 | 0.38 nM
25 | O=S(=O)(c1ccccc1F)c1ncccc1S(=O)(=O)N1CCC(CNS(=O)(=O)C(F)(F)F)CC1 | 790 nM
26 | O=S(=O)(c1cc2ccccc2n1S(=O)(=O)c1ccccc1F)N1CCC(O)(CNS(=O)(=O)C(F)(F)F)CC1 | 0.2 nM
27 | COC1(CNS(=O)(=O)C(F)(F)F)CCN(S(=O)(=O)c2cc3cccnc3n2S(=O)(=O)c2ccccc2F)CC1 | 2.5 nM
28 | CC[C@]1(CNS(=O)(=O)C(F)(F)F)CCN(S(=O)(=O)c2cc3ccccc3n2S(=O)(=O)c2ccccc2F)C[C@H]1C | 3.1 nM
29 | O=S(=O)(c1ccccc1F)c1occc1S(=O)(=O)N1CCC(CNS(=O)(=O)C(F)(F)F)CC1 | 1.4 nM
30 | C[C@H]1C[C@H](CNS(=O)(=O)C(F)(F)F)CCN1S(=O)(=O)c1cc2ccccc2n1S(=O)(=O)c1ccccc1F | 16 nM
31 | CCC1(CNS(=O)(=O)C(F)(F)F)CCN(S(=O)(=O)c2cc3cc(F)ccc3n2S(=O)(=O)c2ccccc2F)CC1 | 0.4 nM
32 | CC1(C)CN(S(=O)(=O)c2cc3ccccc3n2S(=O)(=O)c2ccccc2F)CCC1CNS(=O)(=O)C(F)(F)F (configuration not stated) | 4.2 nM
33 | CC(C)(NS(=O)(=O)C(F)(F)F)C1CCN(S(=O)(=O)c2cc3ccccc3n2S(=O)(=O)c2ccccc2F)CC1 | 171 nM
34 | CCCC1(CNS(=O)(=O)C(F)(F)F)CCN(S(=O)(=O)c2cc3ccccc3n2S(=O)(=O)c2ccccn2)CC1 | 1.6 nM
35 | O=S(=O)(c1cc2ccccc2n1S(=O)(=O)c1ccccc1F)N1CCC2(CC(NS(=O)(=O)C(F)(F)F)C2)C1 (configuration not stated) | 452 nM

system: not listed separately; assay: Selectivity ratio of Ki for recombinant cannabinoid CB1 receptor to Ki for recombinant cannabinoid CB2 receptor; conditions: not given

Row | SMILES | Ratio Ki
36 | C[C@@H](NS(=O)(=O)C(F)(F)F)c1ccc(S(=O)(=O)c2cc3ccccc3n2S(=O)(=O)c2ccccc2F)cc1 | 1340
37 | COc1ccc2c(c1)cc(S(=O)(=O)N1CCC(CNS(=O)(=O)C(F)(F)F)CC1)n2S(=O)(=O)c1ccccc1F | 5160
38 | C[C@@H]1CN(S(=O)(=O)c2cc3ccccc3n2S(=O)(=O)c2ccccc2F)CC[C@@H]1CNS(=O)(=O)C(F)(F)F | 6670
39 | O=S(=O)(c1cc2ccccc2n1S(=O)(=O)c1ccccc1F)N1C[C@@H]2[C@@H](CNS(=O)(=O)C(F)(F)F)[C@@H]2C1 | 279
40 | O=S(=O)(c1cc2ccccc2n1S(=O)(=O)c1ccccc1F)N1CCC2(CC1)C[C@@H]2NS(=O)(=O)C(F)(F)F | 413
41 | CC(C)C1(CNS(=O)(=O)C(F)(F)F)CCCN(S(=O)(=O)c2cc3ccccc3n2S(=O)(=O)c2ccccc2F)C1 (configuration not stated) | 24
42 | C[C@@H]1CN(S(=O)(=O)c2cc3ccccc3n2S(=O)(=O)c2ccccc2F)CC[C@H]1CNS(=O)(=O)C(F)(F)F | 2260
43 | O=S(=O)(c1cc2ccccc2n1S(=O)(=O)c1cccnc1)N1CCC(CNS(=O)(=O)C(F)(F)F)CC1 | 139
44 | O=S(=O)(c1cc2ccccc2n1S(=O)(=O)c1ccccn1)N1CCC(CNS(=O)(=O)C(F)(F)F)CC1 | 9180
45 | O=S(=O)(c1cc2ccccc2n1S(=O)(=O)c1ccccc1F)N1CC(CCNS(=O)(=O)C(F)(F)F)C1 | 11
46 | C[C@@H](NS(=O)(=O)C(F)(F)F)c1ccc(S(=O)(=O)n2cccc2S(=O)(=O)c2ccccc2F)cc1 | 962
47 | Cn1c(S(=O)(=O)c2ccccc2F)c(S(=O)(=O)N2CCC(CNS(=O)(=O)C(F)(F)F)CC2)c2ccccc21 | 364
48 | O=S(=O)(c1cc2ccccc2n1S(=O)(=O)c1ccccc1F)N1CCC2(CC1)CN(S(=O)(=O)C(F)(F)F)C2 | 12
49 | CCCC1(CNS(=O)(=O)C(F)(F)F)CCN(S(=O)(=O)c2cc3ccccc3n2S(=O)(=O)c2ccccc2F)CC1 | 2520
50 | CN(C)c1ncccc1S(=O)(=O)n1c(S(=O)(=O)N2CCC(CNS(=O)(=O)C(F)(F)F)CC2)cc2ccccc21 | 126
51 | C[C@@H](NS(=O)(=O)C(F)(F)F)c1ccc(S(=O)(=O)c2ccoc2S(=O)(=O)c2ccccc2F)cc1 | 2690

Row | SMILES | Ratio Ki
52 | CC1(CNS(=O)(=O)C(F)(F)F)CCN(S(=O)(=O)c2cc3ccccc3n2S(=O)(=O)c2ccccc2F)CC1 | 6720
53 | CC(NS(=O)(=O)C(F)(F)F)C1CCN(S(=O)(=O)c2cc3ccccc3n2S(=O)(=O)c2ccccc2F)CC1 (configuration not stated) | 2080
54 | O=S(=O)(c1cc2ccccc2n1S(=O)(=O)c1ccccc1F)N1CCCC(CCNS(=O)(=O)C(F)(F)F)C1 (configuration not stated) | 3
55 | O=S(=O)(c1cc2ccccc2n1S(=O)(=O)c1ccccn1)N1CCC2(CC1)C[C@@H]2NS(=O)(=O)C(F)(F)F | 3500
56 | O=S(=O)(c1cc2ccccc2n1S(=O)(=O)c1ccccc1F)N1CCC(CNS(=O)(=O)C(F)(F)F)CC1 | 9250
57 | O=S(=O)(c1ccccc1F)c1ncccc1S(=O)(=O)N1CCC(CNS(=O)(=O)C(F)(F)F)CC1 | 126
58 | O=S(=O)(c1cc2ccccc2n1S(=O)(=O)c1ccccc1F)N1CCC(O)(CNS(=O)(=O)C(F)(F)F)CC1 | 4380
59 | COC1(CNS(=O)(=O)C(F)(F)F)CCN(S(=O)(=O)c2cc3cccnc3n2S(=O)(=O)c2ccccc2F)CC1 | 3200
60 | CC[C@]1(CNS(=O)(=O)C(F)(F)F)CCN(S(=O)(=O)c2cc3ccccc3n2S(=O)(=O)c2ccccc2F)C[C@H]1C | 630
61 | O=S(=O)(c1ccccc1F)c1occc1S(=O)(=O)N1CCC(CNS(=O)(=O)C(F)(F)F)CC1 | 4520
62 | C[C@H]1C[C@H](CNS(=O)(=O)C(F)(F)F)CCN1S(=O)(=O)c1cc2ccccc2n1S(=O)(=O)c1ccccc1F | 334
63 | CCC1(CNS(=O)(=O)C(F)(F)F)CCN(S(=O)(=O)c2cc3cc(F)ccc3n2S(=O)(=O)c2ccccc2F)CC1 | 2800
64 | CC1(C)CN(S(=O)(=O)c2cc3ccccc3n2S(=O)(=O)c2ccccc2F)CCC1CNS(=O)(=O)C(F)(F)F (configuration not stated) | 245
65 | CC(C)(NS(=O)(=O)C(F)(F)F)C1CCN(S(=O)(=O)c2cc3ccccc3n2S(=O)(=O)c2ccccc2F)CC1 | 171
66 | CCCC1(CNS(=O)(=O)C(F)(F)F)CCN(S(=O)(=O)c2cc3ccccc3n2S(=O)(=O)c2ccccn2)CC1 | 26400
67 | O=S(=O)(c1cc2ccccc2n1S(=O)(=O)c1ccccc1F)N1CCC2(CC(NS(=O)(=O)C(F)(F)F)C2)C1 (configuration not stated) | 117
